In patent US12616750B2, “Combination therapy utilizing DNA alkylating agents and ATR inhibitors” (Merck Patent GmbH, priority 2018, dated 2026):
Read-outs that look alike come from different tables or passages of the source.

How the values were obtained:
Format in all cases: cell-based
JIMT-1 cells = assay: Cytotoxicity (cell viability, CellTiter-Glo, 6 d); settings: JIMT-1, agent alone, 384-well format (footnote a)
Experimental: Evaluation was performed using GraphPad Prism version 6.05.
(§1) Dose-matrix combination assays were performed as described above, but performed in opague 384-well plates (2k viable cells/well). Compounds were added using Tecan D300e liquid. Protein solutions were supplemented with 0.3% Tween-20 (final) and diluted to 1 μM. All wells were normalized to the maximum amount of DMSO (maximum 0.4%) or Tween-20 added. Read out of luminescence was performed on Envision 2104 Multilabel Reader (Perkin Elmer) and data were evaluated using Genedata Screener® version 14.0.6-Standard (Genedata AG). Luminescence values were normalized to luminescence of non-treated cells and dose-response was fitted using Smart Fit. Synergy scores were calculated using LOEWE synergy model.

NCI-N87 cells [1] = assay: Cytotoxicity (cell viability, CellTiter-Glo, 6 d); settings: Homo sapiens; NCI-N87, agent alone, 384-well format (footnote a)
Experimental: as §1, with “Read out of luminescence was performed on Envision 2104 Multilabel Reader (Perkin Elmer) and data were evaluated using Genedata Screener® version 14.0.6-Standard (Genedata AG).” left out

MDA-MB-453 cells [2] = assay: Cytotoxicity (cell viability, CellTiter-Glo, 6 d)
Experimental: as §1, with “Read out of luminescence was performed on Envision 2104 Multilabel Reader (Perkin Elmer) and data were evaluated using Genedata Screener® version 14.0.6-Standard (Genedata AG).” left out

HCC-1954 cells [3] = assay: Dose-matrix combination assay (synergy score, Loewe model); settings: combination with AZD6738, HCC-1954, 6 d
Experimental: as §1, with “Read out of luminescence was performed on Envision 2104 Multilabel Reader (Perkin Elmer) and data were evaluated using Genedata Screener® version 14.0.6-Standard (Genedata AG).” left out
(§2) The screening of synergistic drug combinations can be accomplished by performing a dose-matrix assay. Therefore, two drugs are serial diluted and mixed at every dose level, yielding a dose-matrix. The drug combination can be additive if the effects of the combination are identical to the added effects of the single agents. However, the effects of the combination might also be stronger than the activity of the single agents. This scenario is termed synergy, whereas weaker combination effects compared to the single agents are termed antagonism. A dose-matrix assay is depicted schematically in FIG. 2 which illustrates the outcomes of a dose-matrix assay: additivity, antagonism and synergy.
(§3) The screening was conducted by serial diluting the duocarmycin derivative DUBA (10) and the DDR inhibitors. […] DUBA was combined in a dose-matrix assay with hycanthone. The cell viability was measured after 6 d of treatment using the CellTiter-Glo assay kit. The signals of the cell viability assay were normalized to untreated cells and fitted. […] By subtracting the modeled data from the fitted data, an excess matrix was generated. The excess matrix can be considered as a visualization of the differences between model and actual data which also highlights spots of either high synergy or antagonism. The quantification of the combination effects, however, was performed by calculating synergy scores. […] Besides synergy score, the potency of the drugs in monotherapy was obtained from these experiments. […] The potency was obtained from this dose-response curve.
(§4) The scattering of S was determined in a sham control experiment to define a cutoff for classifying a combination as truly synergistic or antagonistic. Thus seven different compounds were combined with itself on four different cell lines and the three-σ confidence interval was calculated around the mean of the measurement. […] For the sake of convenience, the cutoff was set to a value of ±1.
(§5) Synergy scores (S) were obtained from the combination experiments that indicated additivity […] if model and actual response were equal. […] The magnitude of the score determined the extent of the combination effects.

MDA-MB-468 cells [4] = assay: Cytotoxicity (cell viability, CellTiter-Glo, 6 d)
HCC-1954 cells [5] = assay: Cytotoxicity (cell viability, CellTiter-Glo, 6 d); settings: Homo sapiens
Experimental: as §1, with “Read out of luminescence was performed on Envision 2104 Multilabel Reader (Perkin Elmer) and data were evaluated using Genedata Screener® version 14.0.6-Standard (Genedata AG).” left out
After 6 d of treatment, CellTiter-Glo luminescent assay was performed and the luminescence was read on Envision Reader. The results were analyzed using GeneData Screener as described before.

NCI-N87 cells [6] = assay: Dose-matrix combination assay (synergy score, Loewe model); settings: combination with AZD6738; NCI-N87
Experimental: as §1, §2

MDA-MB-453 cells [7] = assay: as above; settings: combination with AZD6738; MDA-MB-453
Experimental: as §1, §2

[8] = system: HCC-1954 cells treated with ATR, CHK1 or non-targeting siRNA; assay: Cytotoxicity of duocarmycins on siRNA knock-down cells; settings: 6 d
Experimental: 0.7*10^6 viable cells were seeded in a T25 flask, 5 mL of medium were added and the cells were incubated at 37° C. and 5% C02 overnight. The transfection was carried out as follows: 2.5 μL Lipofectamine RNAiMAX were diluted with 247.5 μL OptiMEM and a 0.3 μM siRNA (ATR, CHK1 or non-targeting siRNA) solution was prepared in OptiMEM to yield 250 μL final volume. The solutions were mixed and incubated for 20 min at room temperature, followed by the addition of 500 μL cell culture medium. The cell culture medium was removed from the cells, washed with PBS (3×) and the transfection mix was added to the cells. After 4 h incubation at 37° C. and 5% CO2, the transfection mix was removed in vacuo. The cells were washed with medium (3×), 5 mL medium were added and the cells were incubated for 60 h at 37° C. and 5% CO2. Then cells were detached, and seeded into 384-well plates. Then a cytotoxicity assay was performed as described before, but with one compound only
Therefore, HCC-1954 cells were seeded into T25 flasks and left to adhere overnight. Then the cells were washed with PBS, and subsequently ATR, CHK1 and non-targeting siRNA were added. The cells were incubated for 4 h, washed with medium and incubated for 3 d. Cells were detached and seeded into 384-well plates. They were treated with duocarmycins for 6 d. Cell viability was determined via CellTiter-Glo assay kit, and data were evaluated using GraphPad Prism. The knock-down efficiency was evaluated using quantitative PCR.

MDA-MB-468 cells [9] = assay: Dose-matrix combination assay (synergy score, Loewe model); settings: combination with AZD6738; MDA-MB-468 (EGFR-positive), 6 d
Experimental: as §1, with “Read out of luminescence was performed on Envision 2104 Multilabel Reader (Perkin Elmer) and data were evaluated using Genedata Screener® version 14.0.6-Standard (Genedata AG).” left out
as §2, §3, §4, §5

MCF7 cells = assay: Cytotoxicity (cell viability); settings: MCF7 (EGFR −, MET −), Table 10
Experimental: (§6) Curve-shift assays were conducted as follows: The cell number and viability was determined using ViCell™-XR (Beckman Coulter) and seeded in opague 96-well plate (10k viable cells/well). After seeding, the plate was incubated (37° C., 5% C02) in a humid chamber overnight. Compounds were diluted in the appropriate medium, added to the cells and the plate was incubated (37° C., 5% CO2, 6 d) in a humid chamber. After 30 min equilibration at room temperature, CellTiter-Glo reagent (Promega) was added. After the plate was shaken (3 min, 550 rpm, rt) it was incubated (10 min, rt) and luminescence was read on a synergy 4 plate reader (BioTek). Evaluation was performed using GraphPad Prism version 6.05. Therefor luminescence values were normalized to luminescence values of non-treated cells and dose-response was fitted with 4-point logistic fit.
as §1

A431 cells = assay: Cytotoxicity (cell viability); settings: A431 (EGFR ++, MET +), Table 10
Experimental: as §6, §1

A549 cells [10] = assay: Cytotoxicity (cell viability); settings: A549 (EGFR +, MET +), Table 10
Experimental: as §6, §1

A549 cells [11] = assay: Dose-matrix combination assay (synergy score, Loewe model); settings: combination with AZD6738; A549 (EGFR-positive), 6 d
Experimental: as §1, §2

SMILES: Cc1cccc2c(O)cc3c(c12)[C@H](CCl)CN3C(=O)c1cn2cc(NC(=O)c3ccc(O)cc3)ccc2n1 [compound 10]
- IC50 (JIMT-1 cells; Homo sapiens): 3 ± 2 nM
- IC50 (NCI-N87 cells [1]): 1.2 ± 0.5 nM
- IC50 (MDA-MB-453 cells [2]; Homo sapiens, MDA-MB-453): 0.3 ± 0.1 nM
- Synergy score S (HCC-1954 cells [3]): 6.7 (6.3, 7.2) 6.9 ± 0.7
- Synergy score S (HCC-1954 cells [3]; listed as DUBA): 6.9±0.7
- Synergy score S (HCC-1954 cells [3]; listed as DUBA (10)): 6.9±0.7
- IC50 (MDA-MB-468 cells [4]; Homo sapiens, MDA-MB-468): 0.06 ± 0.02 nM
- IC50 (HCC-1954 cells [5]; HCC1954, HCC-1954, agent alone, 384-well format (footnote a)): 0.3 ± 0.07 nM
- IC50 (HCC-1954 cells [5]; HCC1954, duocarmycin variant alone, HCC-1954, mean ± SD or mean (individual values)): 0.2 ± 0.1 nM
- Synergy score S (NCI-N87 cells [6]): 3.1+0.6
- Synergy score S (MDA-MB-453 cells [7]): 5.0±0.5
- IC50 ([8]; Homo sapiens, HCC1954, 144 h, ATR knock-down HCC-1954 cells): 0.25 nM

SMILES: CN(C)CCOc1ccc2[nH]c(C(=O)N3C[C@@H](CCl)c4c3cc(O)c3ccccc43)cc2c1 [compound 38]
- IC50 (JIMT-1 cells): 0.14 nM
- IC50 (MDA-MB-453 cells [2]; MDA-MB-453, agent alone, 384-well format (footnote a), read-out: IC50): 0.14 nM
- Synergy score S (MDA-MB-468 cells [9]): 6.0±1.0
- Synergy score S (HCC-1954 cells [3]): 5.6 ± 1.7 5.1 (4.8, 5.3)
- Synergy score S (HCC-1954 cells [3]; listed as DDM): 5.6+1.7
- Synergy score S (HCC-1954 cells [3]; listed as DDM (38)): 5.6±1.7
- IC50 (MDA-MB-468 cells [4]; MDA-MB-468 (EGFR +++, MET +), Table 10, read-out: IC50): 0.02 ± 0.01 nM
- IC50 (MDA-MB-468 cells [4]; MDA-MB-468, agent alone, 384-well format (footnote a), read-out: IC50): 0.02 ± 0.01 nM
- IC50 (MCF7 cells): 0.164 ± 0.004 nM
- IC50 (A431 cells): 0.055 ± 0.005 nM
- IC50 (A549 cells [10]): 0.1 ± 0.1 nM
- Synergy score S (A549 cells [11]): 2.0±1.1
- IC50 ([8]; ATR knock-down HCC-1954 cells): 0.014 nM
- IC50 ([8]; CHK1 knock-down HCC-1954 cells): 0.133 nM
